Values of other authors in patent US6900339B2, “Bryostatin composition and bryostatin acquisition methodologies” (The University of North Carolina at Chapel Hill, priority 2002, dated 2005).

System: leukemia
Settings: background statement

CCC/C=C/C=C/C(=O)O[C@H]1/C(=C/C(=O)OC)C[C@H]2C[C@H]([C@@H](C)O)OC(=O)C[C@H](O)C[C@@H]3C[C@H](OC(C)=O)C(C)(C)[C@](O)(C[C@@H]4C/C(=C/C(=O)OC)C[C@H](/C=C/C(C)(C)[C@]1(O)O2)O4)O3 [bryostatin 1]
effectiveness against leukemia: particularly effective
